Earlier results in US12070503B2, “Transdermal carrier” (priority 2014, dated 2024).
Values belong to the compound of their own block, whether it stands above or below them.

Key:
[1] = difficult to measure, considered generally
[2] = system: HSV-infected cells; conditions: compared with alternatives such as Abreva
[3] = system: hair follicles; conditions: concentrations of 2% and 5%; published studies

half-life [1]: less than 30 minutes
Structure (SMILES): C[C@H](CCC(=O)O)[C@H]1CC[C@H]2[C@@H]3CC[C@@H]4C[C@H](O)CC[C@]4(C)[C@H]3C[C@H](O)[C@]12C [DCA, deoxycholic acid]

Structure (SMILES): Nc1nc2c(ncn2CCC(CO)CO)c(=O)[nH]1 [Penciclovir, penciclovir]
effectiveness against HSV-infected cells [2]: more effective

Structure (SMILES): Nc1cc(N2CCCCC2)nc(N)[n+]1[O-] [minoxidil]
treatment time before evidence of hair growth was demonstrated [3]: > 8 months
